According to PubChem BioAssay (NCI):
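Assay format: 96-well plates, 48-hour exposure. The concentration for 50% growth inhibition is given as GI50. TGI: concentration producing complete growth inhibition.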

Key:
Assay in all cases: inhibition of tumour cell growth, NCI panel, 48 h
CCRF-CEM leukemia = system: CCRF-CEM leukemia
HOP-62 NSCLC = system: HOP-62 NSCLC
K-562 leukemia = system: K-562 leukemia
LOX IMVI melanoma = system: LOX IMVI melanoma
MDA-MB-435 = system: MDA-MB-435
MOLT-4 leukemia = system: MOLT-4 leukemia
NCI-H226 lung = system: NCI-H226 lung
OVCAR-5 ovarian = system: OVCAR-5 ovarian
SK-MEL-28 melanoma = system: SK-MEL-28 melanoma
SNB-75 CNS = system: SNB-75 CNS

Row | Compound | TGI (CCRF-CEM leukemia) [µM] | TGI (HOP-62 NSCLC) [µM] | TGI (K-562 leukemia) [µM] | TGI (LOX IMVI melanoma) [µM] | TGI (MDA-MB-435) [µM] | TGI (MOLT-4 leukemia) [µM] | TGI (NCI-H226 lung) [µM] | TGI (OVCAR-5 ovarian) [µM] | TGI (SK-MEL-28 melanoma) [µM] | TGI (SNB-75 CNS) [µM] | GI50 (CCRF-CEM leukemia) [nM] | GI50 (HOP-62 NSCLC) [nM] | GI50 (K-562 leukemia) [nM] | GI50 (LOX IMVI melanoma) [nM] | GI50 (MDA-MB-435) [µM] | GI50 (NCI-H226 lung) [µM] | GI50 (OVCAR-5 ovarian) [µM] | GI50 (SK-MEL-28 melanoma) [nM] | GI50 (SNB-75 CNS) [nM]
1 | COC(=O)C1(Cc2ccc3c(c2)CCC3)Cc2ccc3c(c2C1=O)CCC3 (configuration not stated) | > 83.1 | > 100 | > 100 | > 65.3 | 6.13 | 36.5 | > 87.2 | > 100 | > 100 | > 55.5 |  |  |  |  |  |  |  |  | 
2 | CCOC(=O)/C(C(N)=O)=C(\O)C(=O)/C=C(\O)c1ccc(Cl)cc1 | 24.4 | 60.7 |  | 31 | 57.7 | 40.6 | 48.8 | 54.3 | 63.2 | 31 |  |  |  |  |  |  |  |  | 
3 | O=C(N/N=C\c1ccc(Cl)cc1)Nc1ccc2ccccc2c1 | > 100 | 51.3 | > 100 | > 100 | > 100 | > 100 | > 100 | > 100 | > 100 | 76.8 |  |  |  |  |  |  |  |  | 
4 | O=C1OC(C(O)CO)C(C(O)CO)OC1=O (configuration not stated) | > 10 | > 10 | > 10 |  | > 10 | > 10 | > 10 | > 10 | > 10 |  |  |  |  |  |  |  |  |  | 
5 | CC1[C@@]2(O[C@@H]3C=C4C5CCC6Cc7nc8c(nc7C[C@@]6(C)C5C[C@H](O)[C@@]4(C)[C@]13O)CC1CCc3c(cc4c5c3C(O)C[C@H]5[C@@H](C)C3(O4)OC(C)(C)CC3O)[C@]1(C)C8)O[C@@](C)(CO)C[C@@H]2O (some centres not stated) | > 3.72 | 0.263 | > 3.72 | > 3.72 |  |  | 2.35 | 1.48 |  | 0.372 |  |  |  |  |  |  |  |  | 
6 | Nc1cc(OCC2CCCCC2)nc(N)n1 | > 100 | > 100 | > 100 | > 100 | > 100 | > 100 | > 100 | > 100 | > 100 | > 100 |  |  |  |  |  |  |  |  | 
7 | O=C1CCCC2=C1CC1=C(CCCC1=O)N2c1ccc(Cl)cc1 | > 100 | > 100 | > 100 | > 100 | > 100 | > 100 | > 100 | > 100 | > 100 | > 100 |  |  |  |  |  |  |  |  | 
8 | O=C1c2c(c3c4cc(F)ccc4oc3c3[nH]c4ccccc4c23)C(=O)N1O | > 100 | 17.3 | > 100 | 2.15 | > 100 |  | 73.8 | > 100 | > 100 | 4.55 | 239 | 1330 | 2090 | 500 | 3.02 | 3.85 | 38.2 | 2890 | 76.9
9 | CCOP(=O)(OCC)C(c1ccc(F)cc1)N(C(=O)NC(F)(F)F)c1ccc(F)cc1 (configuration not stated) | > 100 | > 100 | > 100 | > 100 | > 100 | > 100 | > 100 | > 100 | > 100 | > 100 |  |  |  |  |  |  |  |  | 
10 | O=C(O)c1ccc2c(O)c(O)ccc2c1 | > 31.6 | 41 | > 63.6 | 57 | 34.7 | 18 | 44.3 | 57.5 | > 100 | 22.4 |  |  |  |  |  |  |  |  | 
11 | O=c1c(NCc2ccccc2)c(C2(c3ccccc3F)SCCCS2)c1=O | > 100 | > 100 |  | > 100 | > 100 | > 100 | > 100 | > 100 | > 100 | > 100 |  |  |  |  |  |  |  |  | 
12 | CN1C/C(=C\c2cccs2)C2=NN(c3ccccc3)C(c3cccs3)C2C1 (configuration not stated) | 5.95 | > 100 | > 100 | > 100 | 3.86 | > 100 | > 100 | > 100 | > 100 |  |  |  |  |  |  |  |  |  | 
13 | COc1cc(/C=C2\C(=O)N(c3cccc(NC(C)=O)c3)C(c3ccccc3)S2(=O)=O)cc(OC)c1OC (configuration not stated) | > 100 | > 100 | > 100 | > 100 | > 100 | 86.3 | > 100 | > 100 | > 100 | > 100 |  |  |  |  |  |  |  |  | 
14 | N=C1OC(CN2CCN(c3ccccc3)CC2)CN1C(=O)Nc1ccccc1 (configuration not stated) | > 100 | > 100 | > 100 | > 100 | > 100 | > 100 | > 100 | > 100 | > 100 |  |  |  |  |  |  |  |  |  | 
15 | COc1ccc2c(c1)/C(=C\c1c(Cl)nc3n1CCS3)C(=O)N2 | 79.2 | > 100 | > 100 | > 100 | 4.82 | > 100 |  | 74.1 | > 100 | 36.5 |  |  |  |  |  |  |  |  | 
16 | COP(=O)(OC)C(N)Cc1c[nH]c2ccccc12 (configuration not stated) |  | > 100 | > 100 | > 100 | > 100 | > 100 | > 100 | > 100 | > 100 | > 100 |  |  |  |  |  |  |  |  | 
17 | Cc1nc2c(Cl)cc(Cl)cc2c2c1CCO2 | > 100 |  | > 100 | > 100 | > 100 | > 100 | > 100 | > 100 | > 100 | > 100 |  |  |  |  |  |  |  |  | 
18 | O=C(Cn1c2ccc(Br)cc2c2nc3ccccc3nc21)NCc1ccccc1 | > 100 | > 100 | > 100 | > 100 | > 100 | > 100 | > 100 | > 100 | > 100 | 19.8 |  |  |  |  |  |  |  |  | 
19 | CCCC(=O)OCC1OC(n2cc(F)c(=O)[nH]c2=O)CC1OC(=O)CCC (configuration not stated) | > 10 | > 10 | > 10 | > 10 | > 10 | > 10 | > 10 | > 10 | > 10 |  |  |  |  |  |  |  |  |  | 
20 | O=[N+]([O-])c1ccc(C[P+]2(c3ccccc3)CCCCC2)cc1 (tested in a mixture with another compound) | > 100 | > 100 | > 100 | > 100 |  | > 100 |  | > 100 | > 100 | > 100 |  |  |  |  |  |  |  |  | 
21 | CC(C#N)(NO)C(C)(C#N)NO (configuration not stated) | > 100 |  | > 100 | > 100 | > 100 | > 100 | > 100 | > 100 | > 100 | > 100 |  |  |  |  |  |  |  |  | 
